Source: patent US7723023B2, “Use of intrinsic reporters of cell signaling for high content drug profiling and toxicity screening” (Mount Sinai School of Medicine, priority 2001, dated 2010)

Test system: GnRHR-expressing LβT2 gonadotrope cell line
Assay: SYBR green real-time PCR of transcripts regulated by GnRH in LβT2 cells
Assay type: cell-based, mouse
Settings: 1 hour
Method: Cell Culture and Sample Preparation: LβT2 cells were obtained and maintained at 37° C. in 5% CO2 in humidified air in DMEM (Mediatech) containing 10% fetal bovine serum (Gemini). For experiments. 40-50×10^6 cells were seeded in 15 cm dishes. The medium was replaced 21 hours later with DMEM containing 25 mM HEPES (Mediatech) and glutamine. 18 hours later, the cells were treated with 100 nM GnRH or vehicle and were returned to the CO2 incubator for 1 hour. The incubation was stopped by aspirating the incubation medium and adding 10 ml of lysis buffer (4M guanidinium thiocyanate, 25 mM sodium citrate, pH 7.0, 0.5% N-lauroyl-sarcosine, and 0.1 M 2-mercaptoethanol). Total RNA was isolated according to the method of Chomczynski and Sacchi (1987) supra. Approximately 400 μg total RNA was obtained from each plate.
Real Time PCR. The protocol of Example 1 above, was used. Briefly, […] total RNA was converted into cDNA and […] (approximately 500 pg) was utilized for 40 cycle three-step PCR in an ABI Prism 7700 with 20 mM Tris pH 8.4, 50 mM KCL, 3 mM MgCl2, 200 μM dNTPs, 0.5×SYBR® green (Molecular Probes), […] primer and 0.5 U Platinum Taq (Life Technologies). Amplicon size and reaction specificity was confirmed by agarose gel electrophoresis. The number of target copies in each sample was interpolated from its detection threshold (CT) value using a plasmid or purified PCR product standard curve included on each plate. The sequence of the 60 primer sets utilized can be found in supplementary material. Each transcript in each sample was assayed 5 times and the median CT values were used for analysis.
Confirmation of Gene Regulation by Real-Time PCR. The measurement accuracy of the microarray and the biological variability of the transcriptional program identified was evaluated through a validation study comprising real time PCR assays of 60 transcripts, including 26 genes that met the threshold for regulation in the microarray assay. To generate accurate and precise reference measurements of these genes, 5 measurements were made of each gene in each RNA sample and the measurements were calibrated with a standard curve included on each PCR plate (FIG. 4). Nine experimental pairs of vehicle and GnRH-treated cultures were tested, including the microarray assayed samples. 100% (17 of 17) of the gene changes showing >1.6-fold change on the microarray and 66% (6 of 9) of gene changes showing between 1.3 and 1.6-fold changes were confirmed by PCR. […] Because the threshold was set at a 1.3-fold change, these genes are considered to be not confirmed (see discussion below).

[1] = 100 nM GnRH vs vehicle, LβT2 cells
[2] = gene did not meet the criteria on the microarray, 100 nM GnRH

## gonadotropin releasing hormone [GnRH]
[1]
  1κB fold-change, SYBR PCR (n = 9): 2.6 ± 0.2 fold
  Egr1 fold-change, SYBR PCR (n = 9): 390.6 ± 83.9 fold
  Egr2 fold-change, SYBR PCR (n = 9): 294.7 ± 35.6 fold
  Gem fold-change, SYBR PCR (n = 9): 4.3 ± 0.3 fold
  HSP30 fold-change, SYBR PCR (n = 9): 1.9 ± 0.2 fold
  Klf4 fold-change, SYBR PCR (n = 9): 2.9 ± 0.3 fold
  Klf-like EST fold-change, SYBR PCR (n = 9): 2.5 ± 0.2 fold
  LRG21 fold-change, SYBR PCR (n = 9): 96.8 ± 15.7 fold
  MKP1/3CH134 fold-change, SYBR PCR (n = 9): 3.4 ± 0.4 fold
  NMDMC fold-change, SYBR PCR (n = 9): 1.6 ± 0.3 fold
  Nr4a1/nur77 fold-change, SYBR PCR (n = 9): 49.4 ± 10.1 fold
  Nrf2 fold-change, SYBR PCR (n = 9): 1.5 ± 0.1 fold
  PRL1 fold-change, SYBR PCR (n = 9): 2.1 ± 0.1 fold
  Period1 fold-change, SYBR PCR (n = 9): 4.9 ± 1.1 fold
  Rgs2 fold-change, SYBR PCR (n = 9): 8.7 ± 0.4 fold
  TSC22 fold-change, SYBR PCR (n = 9): 3.3 ± 0.2 fold
  c-fos fold-change, SYBR PCR (n = 9): 52.0 ± 5.8 fold
  c-jun fold-change, SYBR PCR (n = 9): 6.6 ± 0.9 fold
  gly96 fold-change, SYBR PCR (n = 9): 3.8 ± 0.5 fold
  ler2/Pip92 fold-change, SYBR PCR (n = 9): 17.1 ± 2.4 fold
  transgelin fold-change, SYBR PCR (n = 9): 1.8 ± 0.2 fold
  β-actin fold-change, SYBR PCR (n = 9): 1.6 ± 0.1 fold
  γ-actin fold-change, SYBR PCR (n = 9): 3.9 ± 0.4 fold
[2]
  SCL regulation by real-time PCR: 2.4 fold
  STY kinase regulation by real-time PCR: 1.7 fold
  glucose transport protein regulation by real-time PCR: 2.2 fold
